Read-outs that look alike come from different tables or passages of the source.
Tests used:
Assay type in all cases: cell-based, human
[1] = test system: broad panel of cancer cell lines and non-cancer breast cell line MCF10A; assay: MTT growth inhibition: GI50 ranges and selectivity across the cell line panel
Text: (§1) Each BBQ analogue, 2-14 was screened for their growth inhibition ability (GI50) in a broad panel of cancer cell lines and a non-cancer breast cell line (MCF10A), using the MTT growth inhibition assay (Table 1) ([Baker et al., 2021b]). The cancer panel comprised HT29 (colorectal), U87 (brain), SJ-G2 (brain), A2780 (ovary), Du145 (prostate), BE2-C (neuronal), MIA (pancreas), H460 (lung, ER+), A431 (vulva, ER+ (estrogen receptor positive)), and a wide selection of breast cancer cell lines with varying receptor status including MCF-7 (ER + luminal A), T47D (ER/PR+ (progesterone receptor positive)luminal A), ZR-75-1 (ER/PR + luminal A), BT-474 (ER/PR/HER2+ luminal B), SKBR-3 (HER2+), MDA-MB-468, BT20, and MDA-MB-231 (basal, triple negative (TN) for ER, PR, and HER2).
(§2) Stock solutions were prepared as follows and stored as 20 mM DMSO solutions at −20 °C. All cell lines were cultured in a humidified atmosphere 5% CO2 at 37 °C. The cancer cell lines were maintained in Dulbecco’s modified Eagle’s medium (DMEM) (Trace Biosciences, Australia) supplemented with 10% foetal bovine serum (FBS), 10 mM sodium bicarbonate, penicillin (100 IU/mL), streptomycin (100 μg/mL), and glutamine (4 mM). The non-cancer MCF10A cell line was cultured in DMEM:F12 (1:1) cell culture media, 5% heat inactivated horse serum, supplemented with penicillin (50 IU/mL), streptomycin (50 μg/mL), 20 mM Hepes, L-glutamine (2 mM), epidermal growth factor (20 ng/mL), hydrocortisone (500 ng/mL), cholera toxin (100 ng/mL), and insulin (10 μg/mL). The AhR reporter cell line HT29-Lucia™ (Invivogen, United States) was maintained in DMEM supplemented with 10% heat inactivated FBS, L-glutamine (2 mM), penicillin (100 IU/mL), streptomycin (100 μg/mL), 100 μg/mL Normocin™, and 100 μg/mL of the selective antibiotic Zeocin™. All cell lines were purchased from the American Type Culture Collection (ATCC), except for A2780 and A431 which were from the European Collection of Authenticated Cell Cultures (ECACC), and SJ-G2 cell line which was from Dr Mary Danks, St Jude Children’s Research hospital, Memphis, TN.
(§3) Cells in logarithmic growth were transferred to 96-well plates. Cytotoxicity was determined by plating cells in duplicate in 100 μL medium at a density of 2,500–4,000 cells/well in 96 well plates. On day 0, (24 h after plating) when the cells were in logarithmic growth 100 μL medium with or without the test agent was added to each well. After 72 h drug exposure growth inhibitory effects were evaluated using the MTT (3-[4,5-dimethylthiazol-2-yl]-2,5-diphenyltetrazolium bromide) assay with absorbance read at 540 nm. An eight-point dose response curve was produced, using MS Excel software. From these dose-response curves, the GI50 value was calculated, representing the drug concentration at which cell growth is 50% inhibited based on the difference between the optical density values on day 0 and those at the end of drug exposure ([Bradshaw et al., 2008]; [Zhang et al., 2009]). Each data point was conducted in duplicate and the mean ± S.E.M. calculated from four to five replicates (n = 4 or 5), which were performed on separate occasions and separate cell line passages. Where shown, significant test results were determined using T-test analysis at p < 0.01 and p < 0.05 with a two tail distribution.

H460 (lung) cells = assay: MTT growth inhibition assay (72 h)
Text: as §1, §2, §3

Du145 (prostate) cells = assay: MTT growth inhibition assay (72 h)
Text: as §1, §2, §3

[2] = test system: MDA-MB-468 breast cancer cells; assay: MTT growth inhibition assay (72 h); conditions: MDA-MB-468, Breast (TN)
Text: as §1, §2, §3

[3] = test system: MDA-MB-231 breast cancer cells; assay: MTT growth inhibition assay (72 h); conditions: MDA-MB-231, Breast (TN)
Text: as §1, §2, §3

[4] = test system: SKBR3 breast cancer cells; assay: MTT growth inhibition assay (72 h)
Text: as §1, §2, §3

[5] = test system: MCF10A normal breast cells; assay: MTT growth inhibition assay (72 h)
Text: as §1, §2, §3

U87 (brain) cells = assay: MTT growth inhibition assay (72 h); conditions: U87, Brain (GBM)
Text: as §1, §2, §3

BT20 breast cancer cells = assay: MTT growth inhibition assay (72 h)
Text: as §1, §2, §3

T47D breast cancer cells = assay: MTT growth inhibition assay (72 h); conditions: Breast (ER/PR)
Text: as §1, §2, §3

HT29 (colorectal) cells = assay: MTT growth inhibition assay (72 h)
Text: as §1, §2, §3

[6] = test system: ZR-75-1 breast cancer cells; assay: MTT growth inhibition assay (72 h); conditions: ZR-75-1, Breast (ER/PR)
Text: as §1, §2, §3

SJ-G2 (brain) cells = assay: MTT growth inhibition assay (72 h); conditions: SJ-G2, Brain (GBM)
Text: as §1, §2, §3

MIA (pancreas) cells = assay: MTT growth inhibition assay (72 h)
Text: as §1, §2, §3

BE2-C (neuronal) cells = assay: MTT growth inhibition assay (72 h); conditions: Neuron
Text: as §1, §2, §3

[7] = test system: MCF-7 breast cancer cells; assay: MTT growth inhibition assay (72 h)
Text: as §1, §2, §3

[8] = test system: BT474 breast cancer cells; assay: MTT growth inhibition assay (72 h)
Text: as §1, §2, §3

A2780 (ovary) cells = assay: MTT growth inhibition assay (72 h)
Text: as §1, §2, §3

A431 (vulva/skin) cells = assay: MTT growth inhibition assay (72 h)
Text: as §1, §2, §3

[9] = Homo sapiens, NCI-H460, H460, Lung (ER)
[10] = Homo sapiens, SK-BR-3, SKBR3, Breast (HER2)
[11] = Homo sapiens, BT-20, BT20, Breast (TN)
[12] = Homo sapiens, HT-29, HT29, Colon
[13] = Homo sapiens, MCF7, MCF-7, Breast (ER)
[14] = Homo sapiens, BT-474, BT474, Breast (ER/PR/HER2)
[15] = Homo sapiens, A-431, A431, Skin (ER)

Compound | GI50 (H460 (lung) cells; H460, Lung (ER)) [µM] | GI50 (Du145 (prostate) cells) [µM] | GI50 [2] [µM] | GI50 [3] [µM] | GI50 ([4]; SKBR3, Breast (HER2)) [µM] | GI50 [5] [µM] | GI50 (U87 (brain) cells) [µM] | GI50 (BT20 breast cancer cells; BT20, Breast (TN)) [µM] | GI50 (T47D breast cancer cells) [µM] | GI50 (HT29 (colorectal) cells; HT29, Colon) [µM] | GI50 [6] [µM] | GI50 (SJ-G2 (brain) cells) [µM] | GI50 (MIA (pancreas) cells) [µM] | GI50 (BE2-C (neuronal) cells) [µM] | GI50 ([7]; MCF-7, Breast (ER)) [µM] | GI50 ([8]; BT474, Breast (ER/PR/HER2)) [µM] | GI50 (A2780 (ovary) cells) [µM] | GI50 (A431 (vulva/skin) cells; A431, Skin (ER)) [µM] | GI50 (H460 (lung) cells; [9]) [µM] | GI50 (Du145 (prostate) cells; Homo sapiens, DU-145) [µM] | other results
3-Chloro-7H-benzo[de]benzo[4,5]imidazo[2,1-a]isoquinolin-7-one (10a) and 4-chloro-7H-benzo[de]benzo[4,5]imidazo[2,1-a]isoquinolin-7-one (10b) [Compound 10] | 5.7 ± 1.48 | > 50 | 0.0056 ± 0.0017 | 29 ± 10.3 | 0.061 ± 0.024 | 4.2 ± 0.38 | 37 ± 5.8 | 0.27 ± 0.12 | 0.18 ± 0.019 | 2.9 ± 0.18 | 0.072 ± 0.03 | 4.8 ± 0.44 | 9.8 ± 3.1 | 7 ± 0.23 | 0.14 ± 0.045 | 0.56 ± 0.42 | 4.6 ± 0.25 | 0.15 ± 0.036 |  |  | selectivity relative to the normal cell line (fold, range over cell lines) ([1]; A431, MCF-7, T47D, ZR-75-1, SKBR-3, MDA-MB-468, BT20, BT474 vs MCF10A): 7.5 to 750 fold; GI50 ([1]; MCF-7, T47D, ZR-75-1, SKBR-3, MDA-MB-468, BT20, BT474, read-out: GI50 (range over cell lines)): 0.0056 to 0.56 µM; fold more potent than head group substituted analogues 3, 4, 6, 7, 8 and 9 ([1]; across the cell lines examined (Table 1)): > 10 fold
9-Methyl-7H-benzo[de]benzo[4,5]imidazo[2,1-a]isoquinolin-7-one (8a) and 12-methyl-7H-benzo[de]benzo[4,5]imidazo[2,1-a]isoquinolin-7-one (8b) [Compound 8] | 27 ± 6.7 | 38 ± 6.9 | 0.056 ± 0.024 | 8.2 ± 3.3 | 0.27 ± 0.027 | 2 ± 1.3 | 38 ± 2.5 | 1.4 ± 0.8 | 0.8 ± 0.11 | 3.7 ± 0.69 | 0.59 ± 0.38 | 24 ± 8.4 | 20 ± 10 | 15 ± 10 | 2.8 ± 0.61 | 4.6 ± 2.7 | 11 ± 0.58 | 0.56 ± 0.14 |  |  | 
10-Methyl-7H-benzo[de]benzo[4,5]imidazo[2,1-a]isoquinolin-7-one (7a) and 11-methyl-7H-benzo[de]benzo[4,5]imidazo[2,1-a]isoquinolin-7-one (7b) [Compound 7] | 45 ± 8 | 37 ± 7.8 | 0.35 ± 0.13 | 25 ± 7.1 | 1.2 ± 0.93 | 4.7 ± 0.12 | 17 ± 2.7 | 5.2 ± 2 | 3.1 ± 0.17 | 5 ± 0.07 | 0.19 ± 0.045 | > 50 | 8.1 ± 0.97 | 4.9 ± 0.09 | 3.6 ± 0.4 | > 50 | 5.2 ± 0.63 | 4.8 ± 0.7 |  |  | 
O=c1c2ccccc2cc2[nH]c3ccccc3n12 [Compound 12, Benzo[4,5]imidazo[1,2-b]isoquinolin-11(5H)-one] |  |  |  |  |  |  |  |  |  |  |  |  |  |  |  |  |  |  | > 50 | > 50 | GI50 ([2]; Homo sapiens): 0.141 ± 0.074 µM; GI50 ([3]; Homo sapiens): > 50 µM; GI50 [4, 10]: 0.2 ± 0.071 µM; GI50 ([5]; Homo sapiens, MCF-10A): 0.54 ± 0.07 µM; GI50 (U87 (brain) cells; Homo sapiens): > 50 µM; GI50 (BT20 breast cancer cells; [11]): 0.16 ± 0.048 µM; GI50 (T47D breast cancer cells; Homo sapiens): 0.164 ± 0.083 µM; GI50 (HT29 (colorectal) cells; [12]): 0.21 ± 0.056 µM; GI50 ([6]; Homo sapiens): 0.17 ± 0.023 µM; GI50 (SJ-G2 (brain) cells; Homo sapiens): 43 ± 10.3 µM; GI50 (MIA (pancreas) cells; Homo sapiens): 0.62 ± 0.16 µM; GI50 (BE2-C (neuronal) cells; Homo sapiens, BE(2)-C): 0.24 ± 0.079 µM; GI50 [7, 13]: 0.12 ± 0.05 µM; GI50 [8, 14]: > 50 µM; GI50 (A2780 (ovary) cells; Homo sapiens): 3 ± 2.1 µM; GI50 (A431 (vulva/skin) cells; [15]): 0.48 ± 0.1 µM
O=c1c2cccc3cccc(c4n1Cc1ccccc1N=4)c32 [Compound 13, 7H,9H-benzo[4,5]isoquinolino[1,2-b]quinazolin-7-one] |  |  |  |  |  |  |  |  |  |  |  |  |  |  |  |  |  |  | > 50 | > 50 | GI50 ([2]; Homo sapiens): 36 ± 3.8 µM; GI50 ([3]; Homo sapiens): > 50 µM; GI50 [4, 10]: 47 ± 2.7 µM; GI50 ([5]; Homo sapiens, MCF-10A): 38 ± 1.2 µM; GI50 (U87 (brain) cells; Homo sapiens): > 50 µM; GI50 (BT20 breast cancer cells; [11]): > 50 µM; GI50 (T47D breast cancer cells; Homo sapiens): 40 ± 3.3 µM; GI50 (HT29 (colorectal) cells; [12]): > 50 µM; GI50 ([6]; Homo sapiens): 35 ± 1 µM; GI50 (SJ-G2 (brain) cells; Homo sapiens): 56 ± 3.7 µM; GI50 (MIA (pancreas) cells; Homo sapiens): 38 ± 1 µM; GI50 (BE2-C (neuronal) cells; Homo sapiens, BE(2)-C): 42 ± 1.5 µM; GI50 [7, 13]: 32 ± 1.9 µM; GI50 [8, 14]: > 50 µM; GI50 (A2780 (ovary) cells; Homo sapiens): > 50 µM; GI50 (A431 (vulva/skin) cells; [15]): 43 ± 4.4 µM

Source: publication PMC11224556, “Next-generation of BBQ analogues that selectively target breast cancer” (Frontiers in Chemistry, 2024)
